Test results as given in patent US11046991B2, “Rapid preconcentration of viable bacteria using magnetic ionic liquid for PCR amplification and culture-based diagnostics” (priority 2017, dated 2021).

How the values were obtained:
[1] = Viscosity, cone and plate viscometer; format: physicochemical; settings: 23.7° C.
Experimental: Proton NMR spectra (^1H) were recorded using a Bruker 500 MHz nuclear magnetic resonance spectrometer. Solvent peaks were used as reference values for the reporting of chemical shifts. Elemental analyses were obtained using a Perkin Elmer 2100 Series II CHN/S Analyzer (Waltham, Mass., USA). Mass spectra were obtained using an Agilent 6230 TOF LC/MS (Santa Clara, Calif., USA). Viscosity measurements were obtained using a Wells/Brookfield DV1 cone and plate viscometer using a CPA-51Z cone spindle. Each MIL was dried in a vacuum oven for 48 hours at 50° C. ensuring any water or residual solvents were completely removed from the MILs. Sample volumes of 0.5 mL were used for all MILs at a temperature (23.7° C.).

[2] = Magnetic susceptibility, SQUID magnetometer; format: physicochemical
Experimental: The μeff values for each exemplary MIL were determined using a Quantum Design MPMS SQUID magnetometer following procedures similar to those previously reported. (Y. Mudryk, P. Manfrinetti, V. Smetana, J. Liu, M. L. Fornasini, A. Provino, V. K. Pecharsky, G. J. Miller and K. A. Gschneidner, J. Alloys Compd, 2013, 557, 252-260).

E. coli [3] = assay: MIL-based extraction of viable E. coli, selective culture and colony enumeration; settings: for visible colonies after back-extraction with LB media and culture on selective agar: aqueous solutions of 1.68×10^5 CFUs mL^−1
Experimental: For each cell extraction experiment, 2 mL of sterile LB media with 100 μg mL^−1 carbenicillin was inoculated with 0.5 μL of E. coli glycerol stock and incubated overnight at 37° C. and 225 rpm. The overnight culture was centrifuged at 2820 g for 8 min and the supernatant discarded. The cells were then vortexed for 15 s in 2 mL of deionized water and centrifuged once again at 2820 g for 8 min. Following a total of three washes, the cells were re-suspended in 1 mL of deionized water. The concentration of cells within the suspension was initially determined by measuring the optical density of the sample at 600 nm (OD600), where an OD600 equal to 1.000 represents 8×10^8 E. coli cells mL^−1. The bacterial suspension was diluted to an OD600 value of 0.021 (1.68×10^7 cells mL^−1), after which 10-fold serial dilutions were performed to yield the desired sample concentration. Since the sample concentrations were below the detection limit of the spectrophotometer, the final concentration of each sample (in CFUs mL^−1) was obtained using a plate counting method. Briefly, 15 μL of diluted cell suspension were mixed with 985 μL of LB media and vortexed for 3 min. A […] aliquot of the suspension was spread onto a selective LB agar plate with 100 μg mL^−1 carbenicillin and incubated overnight at 37° C. to obtain visible colonies.
(§1) A general schematic for the MIL-based cell extraction procedure is depicted in FIG. 10. In a 4 mL screw cap glass vial, a controlled volume (e.g., 10 μL) of MIL was added to 2 mL of diluted cell suspension and dispersed into microdroplets by vortex agitation for 15-120 s. Following the dispersive extraction, a 0.9 T magnetic field was applied to collect the cell-enriched MIL extraction phase. After the aqueous phase was decanted, the MIL was subjected to a static wash with 2 mL of deionized water to ensure that residual cell suspension was removed. The extracted E. coli was recovered from the MIL solvent by vortexing the MIL in 1 mL of LB media from 30 to 300 s. Following back-extraction, aliquots of the cell-enriched LB media were cultured on selective agar as well as analyzed by PCR.
To detect viable bacteria recovered from the MIL extraction solvent, a culture-based method selective for E. coli transformants was employed. Following MIL-based extraction, a 100 μL aliquot of the LB back-extraction solution was plated on LB agar containing 100 μg mL^−1 carbenicillin and incubated overnight at 37° C. Visible colonies were counted, tabulated, and compared to the colonies obtained for the sample prior to extraction. The enrichment factor (EF) from the MIL-based extraction was calculated by Equation 1, where CMIL is the concentration of CFUs within the MIL extraction phase and CS represents the concentration of CFUs in the bacterial suspension prior to extraction. EF=CMIL/CS Equation 1
To determine if MILs can extract viable E. coli cells, aqueous solutions of 1.68×10^5 CFUs mL^−1 were extracted with each of the seven MILs using an approach that is similar to one depicted in FIG. 10. […] [Co(hfacac)3^−] MILs with the greatest number of colonies obtained from the Ni(II)-based MIL extractions.

E. coli K12 cells = format: cell-based
Experimental: Since culture-based methods are contingent upon the isolation of viable bacteria, the detection of E. coli following MIL-based cell extraction is influenced by the cytotoxicity of MILs. To study the effect of MILs on the growth of E. coli, a 1 mL aliquot of LB media was inoculated with 8.0×10^2±0.5×10^2 CFUs mL^−1 and spiked with approximately 10 μL of a MIL. The mixture was agitated by vortex to simulate the recovery procedure after which a 100 μL aliquot of the suspension was plated on selective agar.

E. coli [4] = assay: PCR amplification of LB back-extraction solution after MIL-based extraction
Experimental: as §1
Following the recovery of E. coli cells from the MIL extraction phase, an aliquot of the LB back-extraction solution was analyzed by PCR. […] The thermal protocol used for amplification of the MTAP gene was as follows: 5 min initial denaturation at 95° C. followed by 30 cycles of 30 s denaturation at 95° C., 45 s annealing at 54° C., and elongation for 45 s at 72° C.
After thermal cycling, the PCR products were mixed with 10 μL of bromophenol blue tracking dye solution (30% glycerol v/v) and loaded on a 1% agarose gel stained with SYBR Safe DNA gel stain. The PCR amplicon was subjected to electrophoresis at approximately 4 V cm^−1 and subsequently visualized using a transilluminator.
To improve detection limits, cells were recovered from the MIL phase using […] and a 1 μL aliquot of LB media was analyzed by PCR amplification. […] MILs as extraction media.
MIL. […] 1999; 37:2479-82). It should be noted that PCR assays are unable to distinguish between live and dead cells and, therefore, are complementary to microbiological culture for the determination of viable cells in a sample.

[5] = 1 second vial inversion (viscosity comparison); format: physicochemical; settings: 1 second inversion of each MIL
Source text: FIG. 2 compares the viscosities of [P66614^+]2[MnCl4^2−], [P66614^+][Ni(hfacac)3^−], and [P66614^+][Nd(hfacac)4^−] by performing a 1 second inversion of each MIL.

E. coli [6] = assay: MIL-based extraction of viable E. coli, selective culture and colony enumeration; settings: extraction time 30 s to 300 s
[7] = Solubility of MILs in organic solvents (solvent miscibility); format: physicochemical; settings: S with footnotes b-e: organic solvents and water, MIL to solvent ratio
Source text: Owing to their unique solvation capabilities and high thermal stability, ILs have been successfully employed in organic synthesis either as reaction media or catalysts. An evaluation of the hydrophobic MIL solubility in a wide range of organic solvents may provide a fundamental understanding into their solvent properties. This could be instrumental for designing MIL-based reaction media, where the MIL can be selectively separated from the reaction products using an external magnetic field. […] The transition-metal based […] fully miscible in all of the organic solvents except DMSO. […] However, as the polarity value of the solvent drops below 0.117, the transition-metal based MILs show decreased solubilities at a 10% (v/v) MIL to solvent ratio. […] The solubility of these MILs in many different organic solvents adds to their versatility and use in numerous applications.

E. coli [8] = assay: Direct PCR amplification of cell-enriched MIL phase; settings: 0.5 μL cell-enriched MIL phase directly in PCR mixture
Experimental: Nucleic acid-based methods (e.g., PCR) have become increasingly popular for the detection of pathogens in food, environmental, and clinical samples to increase sample throughput and achieve lower detection limits. […] [Co(hfacac)3^−] MIL under optimized conditions. After extraction, 0.5 μL of the cell-enriched MIL phase was directly transferred into the PCR reagent mixture and heated at 95° C. for 5 min to induce cell lysis and the release of nucleic acids into solution. […] While the direct PCR detection modality provided a rapid assay for the detection of E. coli, the method was only suitable for the detection of relatively large quantities of cells (approximately 10^7 CFUs mL^−1) in aqueous samples likely due to inhibition caused by the MIL.

Row | SMILES | viscosity [1] [cP] | μeff ([2]; at lower temperatures) [μB] | change in EF with SOC media as back-extraction solution (E. coli [3]; 120 s back-extraction) | enrichment factor (EF) (E. coli [3]; 120 s back-extraction in LB media, 30 s extraction) | enrichment factor (EF) (E. coli [3]; MIL volume of 5 μL, cell suspension at 1.68×10^4 CFUs mL^−1) | visible colonies after back-extraction with LB media and culture on selective agar (E. coli [3]) | colonies with deionized water or 10 mM Tris-HCl (pH 8) as back-extraction solution (E. coli [3]; culture on selective agar) | lowest E. coli concentration detected in aqueous solution (E. coli [3]; optimized conditions, viable cells, culture on selective agar) | influence on the growth of E. coli (E. coli K12 cells; LB media with 8.0×10^2 CFUs mL^−1, approximately 10 μL of MIL, compared to unexposed standard) | amplicon after extraction of cell filtrate (cell-free DNA) (E. coli [4]) | E. coli concentration at which bacterial pDNA was detected by PCR (E. coli [4]; cell recovery in LB media prior to PCR, 2 mL sample) | movement down the vial [5] | enrichment factor (EF) (E. coli [6]) | Solubility [7] | μeff, effective magnetic moment ([2]; from magnetic susceptibility data, SQUID) [μB] | Viable Bacteria (E. coli [3]; extraction of E. coli from aqueous samples, 1.68×10^5 CFUs mL^−1) | Cytotoxicity to E. coli (E. coli K12 cells) | quantity of cells detectable by direct PCR (E. coli [8])
1 | CCCCCCCCCCCCCC[P+](CCCCCC)(CCCCCC)CCCCCC.O=C(C=C([O-])C(F)(F)F)C(F)(F)F.O=C(C=C([O-])C(F)(F)F)C(F)(F)F.O=C(C=C([O-])C(F)(F)F)C(F)(F)F.[Ni+2] [MIL 3, [P66614^+] tris(hexafluoroacetylaceto)nickelate(II)] | 927 | 2.8 | no change in the EF was observed | 15.4±0.8 | 44.6±5.2 | visible colonies were observed | no detectable colonies | 1.68×10^4 CFUs mL^−1 | little to no influence on the growth of E. coli | no amplicon was detected | 1.68×10^4 CFUs mL^−1 | flow easily toward the bottom of the vial | approximately 15 |  |  |  |  | 
2 | CCCCCCCCCCCCCC[P+](CCCCCC)(CCCCCC)CCCCCC [compound 1] | 575.8 |  |  |  |  |  |  |  |  |  |  |  |  | S^b,c,e | 4.3 | No | Yes | 
3 | CCCCCCCCCCCCCC[P+](CCCCCC)(CCCCCC)CCCCCC.O=C(C=C([O-])C(F)(F)F)C(F)(F)F.O=C(C=C([O-])C(F)(F)F)C(F)(F)F.O=C(C=C([O-])C(F)(F)F)C(F)(F)F.[Co+2] [[P66614^+] [Co(hfacac)3^−]] |  |  |  |  |  | visible colonies were observed |  |  |  |  |  |  |  |  |  |  |  | approximately 10^7 CFUs mL^−1
